What all share (assay): growth of human tumour cells (NCI), 48 h
Assay [1] has as its system DMS 273 small cell lung.
Assay [2] concerns HT29 colon.
Assay [3] deals with SNB-75 CNS.
Assay [4] concerns COLO 205 colon.
Assay [5] relates to OVCAR-4 ovarian.
Assay [6] deals with DLD-1 colon.
Assay [7] has as its system K-562 leukemia.
Assay [8] has as its system SNB-78 CNS.
The subject of assay [9] is HL-60(TB) leukemia.
The subject of assay [10] is DMS 114 small cell lung.
Assay [11] has as its system MDA-MB-435.
Assay [12] deals with MDA-MB-231 breast.
Assay [13] has as its system MDA-N.

The structures appear in SMILES notation.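 These data come from cells grown in 96-well plates and exposed to compound for 48 hours at five concentrations. GI50 = concentration required for 50% inhibition of growth. The concentration for full growth arrest is given as TGI.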

As to `O=C(Oc1ccc(Cl)cc1[N+](=O)[O-])c1ccccc1`, the TGI in assay [1], in [2], in assay [3], in assay [4], in [5] and in assay [6] was above 100 µM each time. Besides, the TGI in assay [7], in assay [8], in assay [9] and in assay [10] was above 100 µM each time.
On to `COc1cc(/C=C/C(=O)CC(=O)/C=C/c2ccc(O)c(OC)c2)ccc1O`, for which the TGI in [2] was 32.4 µM; in [3], 18 µM; in [4] it was 28.9 µM; in assay [5], 36.6 µM; in assay [7], above 55.6 µM; in assay [9], 25 µM. The figures for the TGI in [11] and in assay [12] were 12.1 µM and 55.7 µM, respectively.
In the case of `C=C1C(=O)OC2CC1CCC1(C)OC1CCC(C)=CCCC2(C)O` (stereo unspecified), the TGI is 9.89 µM in [1]; 10.7 µM in assay [2]; 19.5 µM in assay [3]; 5.95 µM in [4]; 11.9 µM in assay [5]; 6.12 µM in assay [6]. Further, the TGI in assay [7] stood at 13.7 µM; in assay [8], 26.3 µM; in assay [9], 2.62 µM; in assay [10], 9.27 µM.
`C=CCNS(=O)(=O)c1ncnc2nc[nH]c12`: the TGI in assay [2], in assay [3], in assay [4], in assay [5], in [7] and in assay [11] was above 100 µM each time. The TGI in assay [13] and in [12] was above 100 µM each time.
As to `C=CCSSCC=C`, the TGI in assay [2] is above 100 µM; in assay [3], above 100 µM; in assay [4] it was above 100 µM; in assay [5] it was above 100 µM; in [7], above 100 µM; in assay [9], 46 µM. Further, the TGI in [11] is above 84.7 µM; in assay [13], above 80.2 µM; in [12], above 100 µM.
On to `Br/C(=N\Nc1nn[nH]n1)c1ccncc1`, for which the TGI in assay [2], in assay [3], in assay [4], in assay [5], in assay [7] and in [9] was above 100 µM each time. In addition, the TGI in assay [11], in [13] and in assay [12] was above 100 µM throughout.
In the case of `CC(=O)NNC(=O)C1CCCCN1` (stereo unspecified), the TGI in [2], in assay [4], in assay [5], in assay [7], in assay [9] and in assay [11] was above 100 µM throughout. In addition, the TGI in [13] and in [12] was above 100 µM throughout.
For the molecule `COc1ccc(NC(=S)N/N=C(\C)c2nc3ncccc3[nH]2)cc1`, the TGI in assay [2] was above 100 µM; in assay [3], 70.6 µM; in assay [4], above 100 µM; in [5], above 100 µM; in [7], above 100 µM; in [9], 65.8 µM. Besides, the TGI in assay [11], in [13] and in assay [12] was above 100 µM throughout.
With `CN1CC(CNC(=O)OCc2ccccc2)CC2c3cccc4c3c(cn4C)CC21` (stereo unspecified), the GI50 in assay [2] is 1.4 µM; in [3] it was 1.9 µM; in assay [4] it was 1.37 µM; in assay [7], 1.69 µM; in assay [9] it was 1.91 µM; in assay [11] it was 1.81 µM. Besides, in assay [12], the GI50 was 1.65 µM. For the same molecule, the TGI in assay [2] came out at 3.27 µM; in [3] it was 4.68 µM; in assay [4] it was 2.75 µM; in assay [7], 4.44 µM; in assay [9] it was 3.85 µM; in assay [11] it was 3.53 µM. For the same molecule, the TGI in assay [12] was determined as 3.28 µM.
Regarding `COc1c(OC/C=C(\C)CCC=C(C)C)ccc2ccc(=O)oc12`, the TGI in assay [2], in assay [3], in [4], in assay [5], in [7] and in assay [9] was above 100 µM throughout. The TGI in assay [11], in [13] and in [12] was above 100 µM throughout.
As to `COc1ccc(OC)c(CC(C)N)c1` (stereo unspecified), the TGI in [2], in [3], in assay [4], in assay [5], in [6] and in assay [7] was above 100 µM throughout. Further, the TGI in assay [10] was above 100 µM.
Take `O=C(/C=C/c1ccccc1)N1CCCCC1`: the TGI in assay [2] was above 100 µM; in [3], 89.2 µM; in assay [4] it was above 100 µM; in [5], above 100 µM; in assay [7] it was above 100 µM; in assay [9], above 100 µM. In addition, the TGI in assay [11], in assay [13] and in assay [12] was above 100 µM in each case.
Take `O=C1OCc2cc3cc4c(cc3c(-c3ccc5c(c3)OCO5)c21)OCO4` (tested in a mixture with another compound): the TGI was above 100 µM in assay [2]; 75.1 µM in [4]; above 100 µM in assay [5]; above 100 µM in [7]; above 100 µM in [9]; above 100 µM in [11]. For the same molecule, the values for the TGI in [13] and in assay [12] were 19.2 µM and 15.6 µM, respectively.
As to `Cn1c2c3ccc(Cl)cc3nc-2c(Cl)c2ccccc21`, the TGI in [2] is 49.9 µM; in assay [3] it was 55.1 µM; in [4] it was 40.1 µM; in [5] it was 35.5 µM; in [7] it was above 100 µM; in [9] it was above 100 µM. Moreover, the TGI in assay [11] came to 38.2 µM; in assay [13] it was 46.2 µM; in [12] it was 97.8 µM.
Regarding `O=C1OC2CC=CC1C2` (stereo unspecified), the TGI in assay [1], in [2], in assay [3], in assay [4], in assay [5] and in assay [6] was above 100 µM throughout. The TGI in [7], in assay [8], in assay [9] and in [10] was above 100 µM throughout.
Regarding `O=C(COc1ccc(Cl)c(Cl)c1)N(Cc1ccccc1)Cc1ccc[n+](Cc2ccc(Cl)cc2S(=O)(=O)F)c1`, the TGI in assay [2] is above 100 µM; in assay [3], above 100 µM; in assay [4], above 100 µM; in assay [5], above 100 µM; in assay [7], above 100 µM; in assay [9] it was 94.5 µM. Moreover, the TGI in assay [11] is above 100 µM; in assay [12] it was 31.9 µM.
As to `O=C1CCCC2C3CC(CN12)C1CCCCN1C3` (stereo unspecified), the TGI in assay [2], in assay [4], in [5], in assay [9], in [11] and in assay [13] was above 100 µM each time. Moreover, the TGI in [12] was above 100 µM.
As to `CCCC(=O)O.CCCC(=O)O.CCCC(=O)O.CCCC(=O)O.[Rh].[Rh]`, the GI50 in assay [2] is 0.0334 µM; in assay [3], 0.423 µM; in [4], 0.0186 µM; in assay [7], 0.026 µM; in assay [9], 0.0448 µM; in assay [12], 0.0322 µM. The TGI turned out to be 0.126 µM in [2]; 2.62 µM in assay [3]; 0.0406 µM in assay [4]; 0.273 µM in [7]; 0.351 µM in assay [9]; 0.108 µM in assay [12].
On to `Cl/C(=C\C=Nc1ccc(I)cc1)c1ccc2ccccc2c1`, for which the TGI in assay [2] was above 100 µM; in [3], above 79.9 µM; in assay [4] it was 43 µM; in assay [5], 46.5 µM; in assay [7], 31.8 µM; in assay [9] it was 44.4 µM. In addition, the TGI was 28 µM in [11] and 36 µM in assay [12].
`c1ccc(C[N+]23CN4CN(CN(C4)C2)C3)cc1`: the TGI in assay [2] is above 100 µM; in assay [3], above 100 µM; in [4] it was 35.8 µM; in [5], above 100 µM; in assay [7] it was 86.2 µM; in [9], 57.2 µM. Also, the figures for the TGI in assay [11], in assay [13] and in assay [12] were 45.5 µM, above 100 µM and 49.8 µM, respectively.

(Values after PubChem BioAssay (NCI).)
